The results in this text go back to ChEMBL document CHEMBL1201862, “PubChem BioAssay data set” (2004).

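How tested: cells in 96-well plates exposed to compound for 48 hours at five concentrations. GI50 = concentration required for 50% inhibition of growth.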 Active and inactive are the calls of the source. No stated cut-off is given here; in the data, active = GI50 up to about 1.1 µM and inactive = higher.

Test systems include 786-0; RPMI-8226; OVCAR-8; HOP-62; NCI-H522; SF-539; A549; UACC-62; SNB-19; UO-31; SF-268; KM12; MOLT-4; Malme-3M; SN12C; HCT-116; CAKI-1; MDA-MB-231; MDA-MB-435.
What all share (assay): NCI anticancer screen, dose series, 48 h

On to `CC1=CC(=O)NP(=O)(Oc2ccc(Cl)cc2)N1` (centres undefined), for which the GI50 in the assay on 786-0, in the assay on RPMI-8226, in the assay on OVCAR-8, in the assay with HOP-62, in the assay on NCI-H522 and with SF-539 was > 100 µM (inactive) each time. Moreover, the GI50 in the assay with A549, in the assay on UACC-62, in the assay with SNB-19, with UO-31, in the assay with SF-268 and in the assay on KM12 was > 100 µM (inactive) each time. Moreover, the GI50 in the assay with MOLT-4, with Malme-3M, with SN12C, in the assay on HCT-116 and in the assay with CAKI-1 was > 100 µM (inactive) throughout.

`Cc1ccc(S(=O)(=O)N[C@H](C(=O)O)c2ccccc2)cc1`: the GI50 is > 100 µM (inactive) with 786-0; 26.8 µM (inactive) in the assay on RPMI-8226; > 100 µM (inactive) with OVCAR-8; > 100 µM (inactive) in the assay on NCI-H522; > 100 µM (inactive) in the assay with SF-539; > 100 µM (inactive) with A549. The GI50 in the assay on UACC-62 is > 100 µM (inactive); in the assay on SNB-19, > 100 µM (inactive); with UO-31 it was > 100 µM (inactive); with SF-268 it was > 100 µM (inactive); in the assay on KM12, > 100 µM (inactive); in the assay on MOLT-4, 58.6 µM (inactive). In addition, the GI50 in the assay on Malme-3M, in the assay with SN12C and in the assay with CAKI-1 was > 100 µM (inactive) each time.

Regarding `NC(=O)NC1C(C(N)=O)N(Cc2ccccc2)C(=O)N1Cc1ccccc1` (centres undefined), the GI50 in the assay with 786-0, with RPMI-8226, in the assay with OVCAR-8, with HOP-62, in the assay on NCI-H522 and with SF-539 was > 100 µM (inactive) throughout. Further, the GI50 in the assay on A549, in the assay with UACC-62, in the assay on SNB-19, in the assay on UO-31, in the assay with SF-268 and in the assay with KM12 was > 100 µM (inactive) throughout. The GI50 with MOLT-4, with Malme-3M, with HCT-116 and in the assay with CAKI-1 was > 100 µM (inactive) each time.

For `CC1=C(/C(C)=N/NS(=O)(=O)c2ccc(C)cc2)Sc2ccccc2N1`, the GI50 is > 100 µM (inactive) in the assay with 786-0; 56.8 µM (inactive) with RPMI-8226; > 100 µM (inactive) with OVCAR-8; > 100 µM (inactive) with HOP-62; 46.7 µM (inactive) in the assay on NCI-H522; > 100 µM (inactive) with SF-539. Moreover, the GI50 in the assay on A549 is > 100 µM (inactive); in the assay on UACC-62, 32.9 µM (inactive); with SNB-19 it was > 100 µM (inactive); in the assay with UO-31, 57 µM (inactive); in the assay with SF-268, > 100 µM (inactive); in the assay with KM12, > 100 µM (inactive). Besides, the GI50 in the assay on MOLT-4 was 52.7 µM (inactive); in the assay on Malme-3M it was 77.3 µM (inactive); in the assay on SN12C it was > 100 µM (inactive); with HCT-116, > 100 µM (inactive); in the assay on CAKI-1, > 100 µM (inactive).

For `COC(=O)[C@H](CCSC)NC(=O)c1ccc(CNC(=O)/C=C/c2cccc(Oc3ccccc3)c2)cc1`, the GI50 in the assay on 786-0 is > 100 µM (inactive); with RPMI-8226, 45.5 µM (inactive); with OVCAR-8, > 100 µM (inactive); in the assay with MDA-MB-231 it was 21.3 µM (inactive); in the assay with HOP-62, > 100 µM (inactive); with NCI-H522, 25.8 µM (inactive). Moreover, the GI50 in the assay with SF-539 was > 74.3 µM (inactive); with A549 it was 98.4 µM (inactive); in the assay with UACC-62, 18.2 µM (inactive); in the assay with SNB-19 it was > 95.1 µM (inactive); with UO-31 it was 42.9 µM (inactive); in the assay with SF-268, > 59.2 µM (inactive). Besides, the GI50 is > 100 µM (inactive) in the assay with KM12; 8.83 µM (inactive) with MOLT-4; 18.8 µM (inactive) in the assay on Malme-3M; 60.5 µM (inactive) in the assay with SN12C; > 100 µM (inactive) with HCT-116; 14.3 µM (inactive) with MDA-MB-435. For the same compound, the GI50 in the assay with CAKI-1 is > 46.5 µM (inactive).

`Cc1cccc2c1Oc1ncccc1C2NC(=O)CN(C)C` (centres undefined): the GI50 in the assay on 786-0, in the assay with OVCAR-8, with NCI-H522, with SF-539, in the assay with A549 and with UACC-62 was > 10 µM (inactive) in each case. Also, the GI50 with SNB-19, with UO-31, in the assay with SF-268, in the assay on KM12, with MOLT-4 and with Malme-3M was > 10 µM (inactive) throughout. Besides, the GI50 in the assay on SN12C and with MDA-MB-435 was > 10 µM (inactive) each time.

Consider `Nc1nc(CCl)nc(N2CCOCC2)n1`, for which the GI50 is 14 µM (inactive) in the assay with 786-0; 32.4 µM (inactive) in the assay on RPMI-8226; 34.8 µM (inactive) in the assay with OVCAR-8; 28.9 µM (inactive) in the assay with MDA-MB-231; 18.2 µM (inactive) with HOP-62; 3.4 µM (inactive) with NCI-H522. The GI50 with SF-539 is 22.8 µM (inactive); in the assay on A549 it was > 100 µM (inactive); in the assay on UACC-62, 15.8 µM (inactive); in the assay on SNB-19, > 100 µM (inactive); with UO-31 it was 17.3 µM (inactive); in the assay with SF-268, 33.7 µM (inactive). The GI50 was 32.1 µM (inactive) in the assay on KM12; 26.9 µM (inactive) in the assay on MOLT-4; 36.1 µM (inactive) in the assay on SN12C; 21.5 µM (inactive) with HCT-116; 29.2 µM (inactive) in the assay with MDA-MB-435; 16.5 µM (inactive) in the assay with CAKI-1.

For the compound `COCC(=O)CP(=O)(OC)OC`, the GI50 with 786-0, with RPMI-8226, in the assay with OVCAR-8, in the assay with HOP-62, in the assay with NCI-H522 and in the assay on SF-539 was > 100 µM (inactive) throughout. The GI50 in the assay on A549, in the assay with UACC-62, in the assay with SNB-19, in the assay with UO-31, with SF-268 and in the assay with KM12 was > 100 µM (inactive) each time. The GI50 with MOLT-4, with Malme-3M, in the assay with SN12C, in the assay with HCT-116 and in the assay on CAKI-1 was > 100 µM (inactive) in each case.

Take `N#CC(NNC(=O)Cc1ccccc1)c1ccc([N+](=O)[O-])cc1` (centres undefined): the GI50 in the assay on 786-0, in the assay on RPMI-8226, with OVCAR-8, in the assay with HOP-62, in the assay with NCI-H522 and in the assay with SF-539 was > 100 µM (inactive) throughout. The GI50 with A549, with UACC-62, in the assay with UO-31, in the assay with SF-268, with KM12 and with MOLT-4 was > 100 µM (inactive) each time. The GI50 in the assay on Malme-3M, in the assay with SN12C and with HCT-116 was > 100 µM (inactive) each time.

Turning to `CCCCCCCCCCCC(=O)OCC1OC(n2cc(F)c(=O)[nH]c2=O)C(NC(=O)OCc2ccccc2)C(O)C1O` (centres undefined), the GI50 in the assay on 786-0 is 24 µM (inactive); with RPMI-8226, 19.4 µM (inactive); in the assay on OVCAR-8, 21.2 µM (inactive); in the assay on HOP-62 it was 44.9 µM (inactive); with NCI-H522 it was 14.5 µM (inactive); with SF-539 it was 22 µM (inactive). The GI50 with A549 was 20.8 µM (inactive); with UACC-62, 19.3 µM (inactive); with SNB-19 it was 28.5 µM (inactive); with UO-31, 30.3 µM (inactive); in the assay on SF-268 it was 39.5 µM (inactive); in the assay with KM12, 21.3 µM (inactive). Moreover, the GI50 in the assay on MOLT-4 is 21.2 µM (inactive); in the assay on Malme-3M it was 21 µM (inactive); in the assay with SN12C, 18.5 µM (inactive); in the assay on HCT-116, 16.7 µM (inactive); in the assay with CAKI-1 it was 32.6 µM (inactive).

With `Cc1cccc(CC(C)(C)C)c1NC(=O)C(=O)C(C(=O)c1ccc2ccccc2c1)C1OC(=O)c2ccccc21` (centres undefined), the GI50 is 7.23 µM (inactive) in the assay on 786-0; 10.1 µM (inactive) in the assay on RPMI-8226; 6.58 µM (inactive) with OVCAR-8; 15.4 µM (inactive) in the assay on HOP-62; 9.53 µM (inactive) in the assay on NCI-H522; 2.95 µM (inactive) in the assay on SF-539. The GI50 was 12.4 µM (inactive) in the assay with A549; 7.52 µM (inactive) in the assay with UACC-62; 10.6 µM (inactive) in the assay on SNB-19; 16 µM (inactive) with UO-31; 8.53 µM (inactive) in the assay on SF-268; 14.5 µM (inactive) in the assay with KM12. Besides, the GI50 was 10.8 µM (inactive) in the assay with Malme-3M, 15.8 µM (inactive) in the assay with SN12C, 6.73 µM (inactive) in the assay with HCT-116 and 19.2 µM (inactive) in the assay with CAKI-1.

For the compound `COc1cc2c(cc1C[C@H]1[C@@H]3C[C@H]4c5c(c6ccccc6n5C)C[C@@H]([C@@H]3CO[C@]1(C)OC(C)=O)N4C)c1c(n2C)C2C[C@H]3C(C(C)=O)=COC[C@H]3[C@H](C1)N2C`, the GI50 is 2.86 µM (inactive) with 786-0; 0.764 µM (active) in the assay on RPMI-8226; 3.66 µM (inactive) with OVCAR-8; 4.55 µM (inactive) in the assay with MDA-MB-231; 1.56 µM (inactive) in the assay with HOP-62; 2.84 µM (inactive) with SF-539. Also, the GI50 in the assay with A549 was > 25 µM (inactive); with UACC-62 it was 5.11 µM (inactive); with SNB-19, 5.2 µM (inactive); in the assay on UO-31, 6.27 µM (inactive); with SF-268, 2.69 µM (inactive); with KM12, 2 µM (inactive). The GI50 in the assay with MOLT-4 is 2.44 µM (inactive); in the assay on Malme-3M, 3.18 µM (inactive); with SN12C, 6.24 µM (inactive); in the assay on HCT-116 it was 2.5 µM (inactive); with MDA-MB-435, > 25 µM (inactive); with CAKI-1, 2.23 µM (inactive).
